Assay results published in patent US9790203B2, “Inhibitor compounds of phosphodiesterase type 10A” (ABBVIE DEUTSCHLAND GMBH & CO. KG, priority 2012, dated 2017).

Experiments:
PDE10A = PDE10A (Homo sapiens (Human), UniProt Q9Y233); assay: Measurement of PDE activity (HTRF cAMP kit, recombinant PDE); assay type: biochemical; conditions: recombinant PDE10, 20 nM cyclic nucleotide substrate, 60 minutes at 29 C
Experimental: The recombinant PDE proteins are used in in vitro enzymatic reaction for measurement of PDE activity. These recombinant proteins, including PDE10A (human, rat and mouse PDE10) and isoforms of PDEs 1, 3, 4, and 5, were purchased from commercial vendor BPS Bioscience. The enzymatic activity of PDEs was determined by cAMP measurement kit from CisBio (IBA) using HTRF technology.
The PDE enzymatic reaction was carried out in assay buffer (20 mM Tris-HCl pH7.5, 10 mM MgCl2, 0.1% bovine serum albumin) containing enzyme and substrate. […] The substrate cyclic nucleotide (cAMP or cGMP) concentration used in the assay was 20 nM for PDE10, and 100 nM for other PDEs. The inhibitory effect of compound was determined by incubating various concentration of inhibitor in the enzymatic assay. […] Next, the compound at varying concentration was mixed with PDE enzyme. The reaction was initiated by addition of cyclic nucleotide substrate, and incubated for 60 minutes at 29 C. The reaction was stopped by addition of lysis buffer from assay kit. The cAMP-d2 and anti-cAMP cryptate in the lysis buffer detected the level of cAMP left from the PDE hydrolysis reaction. […] Thus, IC50 value of inhibitor can be obtained by plotting inhibitor concentration against PDE activity at that concentration.

[1] = Microsomal half-life / microsomal clearance, rat liver microsomes; assay type: in vitro ADME; conditions: 0.5 μM test substance, 0.25 mg microsomal protein/ml, pH 7.4, 37° C.
Experimental: (§1) The metabolic stability of the compounds of the invention was determined in the following assay.
(§2) The test substances were incubated in a concentration of 0.5 μM as follows:
(§3) 0.5 μM test substance are preincubated together with liver microsomes from different species (from rat, human or other species) (0.25 mg of microsomal protein/ml) in 0.05 M potassium phosphate buffer of pH 7.4 in microtiter plates at 37° C. for 5 min. The reaction is started by adding NADPH (1 mg/mL). After 0, 5, 10, 15, 20 and 30 min, 50 μl aliquots are removed, and the reaction is immediately stopped and cooled with the same volume of acetonitrile. The samples are frozen until analyzed. The remaining concentration of undegraded test substance is determined by MSMS. The half-life (T1/2) is determined from the gradient of the signal of test substance/unit time plot, it being possible to calculate the half-life of the test substance, assuming first order kinetics, from the decrease in the concentration of the compound with time. The microsomal clearance (mCl) is calculated from mCl=ln 2/T1/2/(content of microsomal protein in mg/ml)×1000 [ml/min/mg] (modified from references: Di, The Society for Biomoleculur Screening, 2003, 453-462; Obach, DMD, 1999 vol 27. N 11, 1350-1359).

[2] = Microsomal half-life / microsomal clearance, human liver microsomes; assay type: in vitro ADME; conditions: 0.5 μM test substance, 0.25 mg microsomal protein/ml, pH 7.4, 37° C.
Experimental: as §1, §2, §3

PDE10A, sequence (Q9Y233 whole entry, species assumed, canonical isoform): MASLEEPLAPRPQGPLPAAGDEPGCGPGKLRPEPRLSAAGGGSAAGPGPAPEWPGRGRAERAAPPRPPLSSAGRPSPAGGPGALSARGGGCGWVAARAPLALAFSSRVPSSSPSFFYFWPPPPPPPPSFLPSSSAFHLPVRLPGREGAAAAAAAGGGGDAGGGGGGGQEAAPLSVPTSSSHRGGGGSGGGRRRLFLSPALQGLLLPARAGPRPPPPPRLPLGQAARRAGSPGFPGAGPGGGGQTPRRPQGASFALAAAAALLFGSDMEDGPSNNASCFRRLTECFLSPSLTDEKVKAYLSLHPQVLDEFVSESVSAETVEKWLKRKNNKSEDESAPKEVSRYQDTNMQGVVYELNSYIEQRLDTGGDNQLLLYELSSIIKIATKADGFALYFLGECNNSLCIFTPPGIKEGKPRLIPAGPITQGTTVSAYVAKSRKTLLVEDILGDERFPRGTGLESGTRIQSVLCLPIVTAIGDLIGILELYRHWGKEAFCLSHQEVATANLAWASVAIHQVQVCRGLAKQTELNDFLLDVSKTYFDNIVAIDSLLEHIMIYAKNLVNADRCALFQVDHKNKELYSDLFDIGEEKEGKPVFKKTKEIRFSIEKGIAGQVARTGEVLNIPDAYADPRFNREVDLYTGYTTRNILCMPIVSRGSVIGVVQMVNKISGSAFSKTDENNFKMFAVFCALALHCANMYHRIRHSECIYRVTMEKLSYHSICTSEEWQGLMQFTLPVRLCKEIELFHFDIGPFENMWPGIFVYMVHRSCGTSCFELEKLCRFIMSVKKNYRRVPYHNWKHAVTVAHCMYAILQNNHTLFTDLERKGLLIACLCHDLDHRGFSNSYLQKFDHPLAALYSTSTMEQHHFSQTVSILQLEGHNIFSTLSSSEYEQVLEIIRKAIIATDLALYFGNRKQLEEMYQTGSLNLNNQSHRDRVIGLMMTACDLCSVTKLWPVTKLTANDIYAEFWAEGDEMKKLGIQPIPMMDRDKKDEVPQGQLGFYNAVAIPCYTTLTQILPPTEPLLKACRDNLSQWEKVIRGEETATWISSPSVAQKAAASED

With Cc1cccc(C#Cc2ccc(-c3nn(C)cc3-c3cncnc3)cc2)n1 [Example 25, 5-[1-methyl-3-[4-[2-(6-methyl-2-pyridyl)ethynyl]phenyl]pyrazol-4-yl]pyrimidine] as the compound, how does the IC50 (PDE10A) read?
The IC50 was 0.1 to 0.2 µM.

With Cc1cccc(C#Cc2ccc(-c3nn(C)cc3-c3cn[nH]c3)cc2)n1 [Example 24, 2-methyl-6-[2-[4-[1-methyl-4-(1H-pyrazol-4-yl)pyrazol-3-yl]phenyl]ethynyl]pyridine] as the compound, how does the “Rat mCl” value [1] read?
The value was “++ (<100 μl min^−1 mg^−1)”.

What about the “Human mCl” value [2] of the same compound?
The value was “++ (<100 μl min^−1 mg^−1)”.

What about the IC50 (PDE10A) of the same compound?
Its IC50 is 0.2 to 0.5 µM.

What does the source list for COc1cccnc1C#Cc1ccc(-c2nn(C)cc2-c2ccncc2)cc1 [Example 21, 3-methoxy-2-[2-[4-[1-methyl-4-(4-pyridyl)pyrazol-3-yl]phenyl]ethynyl]pyridine]?
Rat mCl [1]: ++ (<100 μl min^−1 mg^−1); Human mCl [2]: ++ (<100 μl min^−1 mg^−1); IC50 (PDE10A): < 0.1 µM

Which results are given for Cc1ccnc(C#Cc2ccc(-c3nn(C)cc3-c3ccncc3)cc2)c1 [Example 8, 4-Methyl-2-((4-(1-methyl-4-(pyridin-4-yl)-1H-pyrazol-3-yl)phenyl)ethynyl)pyridine]?
Rat mCl [1]: ++ (<100 μl min^−1 mg^−1); Human mCl [2]: ++ (<100 μl min^−1 mg^−1); IC50 (PDE10A): < 0.1 µM

Which results are given for Cc1cccnc1C#Cc1ccc(-c2nn(C)cc2-c2ccncc2)cc1 [Example 6, 3-Methyl-2-((4-(1-methyl-4-(pyridin-4-yl)-1H-pyrazol-3-yl)phenyl)ethynyl)pyridine]?
Rat mCl [1]: ++ (<100 μl min^−1 mg^−1); Human mCl [2]: ++ (<100 μl min^−1 mg^−1); IC50 (PDE10A): < 0.1 µM

For Cn1cc(-c2ccncc2)c(-c2ccc(C#Cc3ccc4cc[nH]c4n3)cc2)n1 [Example 15, 6-[2-[4-[1-methyl-4-(4-pyridyl)pyrazol-3-yl]phenyl]ethynyl]-1H-pyrrolo[2,3-b]pyridine], which “Rat mCl” value [1] is on record?
Its value is “++ (<100 μl min^−1 mg^−1)”.

What about the “Human mCl” value [2] of the same compound?
Its value is “++ (<100 μl min^−1 mg^−1)”.

And the IC50 (PDE10A)?
Its IC50 is < 0.1 µM.

Which results are given for Cn1cc(-c2ccncc2)c(-c2ccc(C#Cc3ccccn3)cc2)n1 [Example 2, 2-((4-(1-methyl-4-(pyridin-4-yl)-1H-pyrazol-3-yl)phenyl)ethynyl)pyridine]?
Rat mCl [1]: ++ (<100 μl min^−1 mg^−1); Human mCl [2]: ++ (<100 μl min^−1 mg^−1); IC50 (PDE10A): < 0.1 µM

With Cn1cc(-c2ccncc2)c(-c2ccc(C#Cc3ccc4ccccc4n3)cc2)n1 [Example 12, 2-((4-(1-methyl-4-(pyridin-4-yl)-1H-pyrazol-3-yl)phenyl)ethynyl)quinoline] as the compound, how does the “Rat mCl” value [1] read?
Its value is “++ (<100 μl min^−1 mg^−1)”.

What about the “Human mCl” value [2] of the same compound?
The value was “++ (<100 μl min^−1 mg^−1)”.

What about the IC50 (PDE10A) of the same compound?
Its IC50 is < 0.1 µM.

With COc1ccc(-c2cn(C)nc2-c2ccc(C#Cc3cccc(C)n3)cc2)cc1 [Example 31, 2-[2-[4-[4-(4-methoxyphenyl)-1-methyl-pyrazol-3-yl]phenyl]ethynyl]-6-methylpyridine; 2,2,2-trifluoroacetic acid] as the compound, how does the IC50 (PDE10A) read?
Its IC50 is 0.1 to 0.2 µM.

For Cc1cc(C#Cc2ccc(-c3nn(C)cc3-c3ccncc3)cc2)nc2ccccc12 [Example 16, 4-methyl-2-[2-[4-[1-methyl-4-(4-pyridyl)pyrazol-3-yl]phenyl]ethynyl]quinoline], which “Rat mCl” value [1] is on record?
The value was “++ (<100 μl min^−1 mg^−1)”.

And the “Human mCl” value [2]?
The value was “++ (<100 μl min^−1 mg^−1)”.

And the IC50 (PDE10A)?
The IC50 was < 0.1 µM.

With Cn1cc(-c2ccncc2)c(-c2ccc(C#Cc3nccn3C)cc2)n1 [Example 7, 4-(1-methyl-3-(4-((1-methyl-1H-imidazol-2-yl)ethynyl)phenyl)-1H-pyrazole-4-yl)pyridine] as the compound, how does the “Rat mCl” value [1] read?
The value was “++ (<100 μl min^−1 mg^−1)”.

What about the “Human mCl” value [2] of the same compound?
The value was “++ (<100 μl min^−1 mg^−1)”.

And the IC50 (PDE10A)?
Its IC50 is < 0.1 µM.

With Cn1cc(-c2ccncc2)c(-c2ccc(C#Cc3ccc4ncccc4n3)cc2)n1 [Example 13, 2-[2-[4-[1-methyl-4-(4-pyridyl)pyrazol-3-yl]phenyl]ethynyl]-1,5-naphthyridine] as the compound, how does the “Rat mCl” value [1] read?
Its value is “++ (<100 μl min^−1 mg^−1)”.

What about the “Human mCl” value [2] of the same compound?
The value was “++ (<100 μl min^−1 mg^−1)”.

What about the IC50 (PDE10A) of the same compound?
Its IC50 is < 0.1 µM.

What does the source list for COc1cc(-c2nn(C)cc2-c2ccncc2)ccc1C#Cc1cccc(C)n1.O=C(O)C(F)(F)F [Example 32, 2-[2-[2-methoxy-4-[1-methyl-4-(4-pyridyl)pyrazol-3-yl]phenyl]ethynyl]-6-methylpyridine; 2,2,2-trifluoroacetic acid]?
Rat mCl [1]: + (100-220 μl min^−1 mg^−1); Human mCl [2]: ++ (<100 μl min^−1 mg^−1); IC50 (PDE10A): < 0.1 µM

Which “Rat mCl” value [1] does the source give for Cc1cccc(C#Cc2c(-c3ccncc3)nc3n2CCC3)n1.O=C(O)C(F)(F)F [Example 19, 3-[2-(6-methyl-2-pyridyl)ethynyl]-2-(4-pyridyl)-6,7-dihydro-5H-pyrrolo[1,2-a]imidazole; 2,2,2-trifluoroacetic acid] here?
Its value is “+ (100-220 μl min^−1 mg^−1)”.

And the “Human mCl” value [2]?
The value was “+ (100-220 μl min^−1 mg^−1)”.

Which “Rat mCl” value [1] does the source give for COc1cccc(C#Cc2ccc(-c3nn(C)cc3-c3ccncc3)cc2)n1.O=C(O)C(F)(F)F [Example 20, 2-methoxy-6-[2-[4-[1-methyl-4-(4-pyridyl)pyrazol-3-yl]phenyl]ethynyl]pyridine; 2,2,2-trifluoroacetic acid] here?
The value was “++ (<100 μl min^−1 mg^−1)”.

What about the “Human mCl” value [2] of the same compound?
The value was “++ (<100 μl min^−1 mg^−1)”.

What about the IC50 (PDE10A) of the same compound?
Its IC50 is < 0.1 µM.

For Cn1cc(-c2ccncc2)c(-c2ccc(C#Cc3ccc(F)cn3)cc2)n1 [Example 5, 5-Fluoro-2-((4-(1-methyl-4-(pyridin-4-yl)-1H-pyrazol-3-yl)phenyl)ethynyl)pyridine], which “Rat mCl” value [1] is on record?
The value was “++ (<100 μl min^−1 mg^−1)”.

What about the “Human mCl” value [2] of the same compound?
The value was “++ (<100 μl min^−1 mg^−1)”.

And the IC50 (PDE10A)?
Its IC50 is < 0.1 µM.

With Cc1ccc(C#Cc2ccc(-c3nn(C)cc3-c3ccncc3)cc2)nc1 [Example 3, 5-methyl-2-((4-(1-methyl-4-(pyridin-4-yl)-1H-pyrazol-3-yl)phenyl)ethynyl)pyridine] as the compound, how does the “Rat mCl” value [1] read?
The value was “++ (<100 μl min^−1 mg^−1)”.

What about the “Human mCl” value [2] of the same compound?
The value was “++ (<100 μl min^−1 mg^−1)”.

What about the IC50 (PDE10A) of the same compound?
The IC50 was < 0.1 µM.

Which results are given for Cc1cccc(C#Cc2ccc(-c3nn(C)cc3-c3ccnn3C)cc2)n1.Cl [Example 27, 2-methyl-6-[2-[4-[1-methyl-4-(2-methylpyrazol-3-yl)pyrazol-3-yl]phenyl]ethynyl]-pyridine hydrochloride]?
Rat mCl [1]: + (100-220 μl min^−1 mg^−1); Human mCl [2]: ++ (<100 μl min^−1 mg^−1); IC50 (PDE10A): 0.1 to 0.2 µM

For Cn1cc(-c2ccncc2)c(-c2ccc(C#Cc3cn4ccccc4n3)cc2)n1 [Example 14, 2-[2-[4-[1-methyl-4-(4-pyridyl)pyrazol-3-yl]phenyl]ethynyl]imidazo[1,2-a]pyridine], which “Rat mCl” value [1] is on record?
The value was “++ (<100 μl min^−1 mg^−1)”.

What about the “Human mCl” value [2] of the same compound?
The value was “++ (<100 μl min^−1 mg^−1)”.

What about the IC50 (PDE10A) of the same compound?
Its IC50 is < 0.1 µM.

Which results are given for Cn1cc(-c2ccncc2)c(-c2ccc(C#Cc3cnc4ccccc4n3)cc2)n1.O=C(O)C(F)(F)F [Example 18, 2-[2-[4-[1-methyl-4-(4-pyridyl)pyrazol-3-yl]phenyl]ethynyl]quinoxaline; 2,2,2-trifluoroacetic acid]?
Rat mCl [1]: ++ (<100 μl min^−1 mg^−1); Human mCl [2]: ++ (<100 μl min^−1 mg^−1); IC50 (PDE10A): < 0.1 µM

Which “Rat mCl” value [1] does the source give for Cc1cccc(C#Cc2ccc(-c3nn(C)cc3-c3ccncc3)cc2)n1 [Example 9, 2-Methyl-6-((4-(1-methyl-4-(pyridin-4-yl)-1H-pyrazol-3-yl)phenyl)ethynyl)pyridine] here?
The value was “++ (<100 μl min^−1 mg^−1)”.

What about the “Human mCl” value [2] of the same compound?
Its value is “++ (<100 μl min^−1 mg^−1)”.

What about the IC50 (PDE10A) of the same compound?
The IC50 was < 0.1 µM.

For Cc1cccc(C#Cc2ccc(-c3nn(C)cc3-c3ccnnc3)cc2)n1 [Example 28, 4-[1-methyl-3-[4-[2-(6-methyl-2-pyridyl)ethynyl]phenyl]pyrazol-4-yl]pyridazine], which IC50 (PDE10A) is on record?
The IC50 was < 0.1 µM.

For Cc1cccc(C#Cc2ccc(-c3c(-c4ccncc4)nc4n3CCC4)cc2)n1 [Example 23, 3-[4-[2-(6-methyl-2-pyridyl)ethynyl]phenyl]-2-(4-pyridyl)-6,7-dihydro-5H-pyrrolo[1,2-a]imidazole], which “Rat mCl” value [1] is on record?
The value was “++ (<100 μl min^−1 mg^−1)”.

And the “Human mCl” value [2]?
The value was “++ (<100 μl min^−1 mg^−1)”.

And the IC50 (PDE10A)?
The IC50 was 0.1 to 0.2 µM.

What does the source list for Cn1cc(-c2ccncc2)c(-c2ccc(C#Cc3nccs3)cc2)n1.O=C(O)C(F)(F)F [Example 17, 2-[2-[4-[1-methyl-4-(4-pyridyl)pyrazol-3-yl]phenyl]ethynyl]thiazole; 2,2,2-trifluoroacetic acid]?
Rat mCl [1]: ++ (<100 μl min^−1 mg^−1); Human mCl [2]: ++ (<100 μl min^−1 mg^−1); IC50 (PDE10A): 0.1 to 0.2 µM

With CCCn1cc(C#Cc2ccc(-c3nn(C)cc3-c3ccncc3)cc2)cn1 [Example 4, 4-(1-methyl-3-(4-((1-propyl-1H-pyrazol-4-yl)ethynyl)phenyl)-1H-pyrazole-4-yl)pyridine] as the compound, how does the “Human mCl” value [2] read?
The value was “++ (<100 μl min^−1 mg^−1)”.
